In ChEMBL document CHEMBL3734667 (Bioorg Med Chem, 2015):

system: not listed separately; test: Cytotoxicity against human MT4 cells assessed as cell viability after 96 hrs by MTT assay; assay type: cell-based; conditions: not given

SMILES | CC50 at 96 h
CN(C)C(=O)Cn1nnc2ccccc21 | > 100 µM
CN(C)C(=O)Cn1nc2ccccc2n1 | > 100 µM
C[C@@H](Oc1ccc(-n2nc3ccccc3n2)cc1)C(=O)O | > 100 µM
CC(CC(=O)O)n1nc2ccc3ccccc3c2n1 (stereo not given) | > 100 µM
NCCn1nnc2ccccc21 | > 100 µM
Nc1nc2c(ncn2COCCO)c(=O)[nH]1 [ACYCLOVIR] | > 100 µM
C[C@H](Oc1ccc(-n2nc3ccccc3n2)cc1)C(=O)O | > 100 µM

system: not listed separately; test: Cytotoxicity against MDBK cells assessed as cell viability after 48 to 96 hrs by MTT assay; assay type: cell-based, Bos taurus; conditions: cattle

SMILES | CC50
CN(C)C(=O)Cn1nnc2ccccc21 | > 100 µM
CN(C)C(=O)Cn1nc2ccccc2n1 | > 100 µM
C[C@@H](Oc1ccc(-n2nc3ccccc3n2)cc1)C(=O)O | > 100 µM
CC(CC(=O)O)n1nc2ccc3ccccc3c2n1 (stereo not given) | > 100 µM
NCCn1nnc2ccccc21 | > 100 µM
Nc1nc2c(ncn2COCCO)c(=O)[nH]1 [ACYCLOVIR] | > 100 µM
C[C@H](Oc1ccc(-n2nc3ccccc3n2)cc1)C(=O)O | > 100 µM

system: not listed separately; test: Cytotoxicity against BHK cells assessed as cell viability after 48 to 96 hrs by MTT assay; assay type: cell-based, Mesocricetus auratus; conditions: hamster

SMILES | CC50
CN(C)C(=O)Cn1nnc2ccccc21 | > 100 µM
CN(C)C(=O)Cn1nc2ccccc2n1 | > 100 µM
C[C@@H](Oc1ccc(-n2nc3ccccc3n2)cc1)C(=O)O | > 100 µM
CC(CC(=O)O)n1nc2ccc3ccccc3c2n1 (stereo not given) | > 100 µM
NCCn1nnc2ccccc21 | > 100 µM
Nc1nc2c(ncn2COCCO)c(=O)[nH]1 [ACYCLOVIR] | > 100 µM
C[C@H](Oc1ccc(-n2nc3ccccc3n2)cc1)C(=O)O | > 100 µM

system: not listed separately; test: Cytotoxicity against african green monkey Vero 76 cells assessed as cell viability after 48 to 96 hrs by crystal violet staining method; assay type: cell-based; conditions: chlorocebus sabaeus

SMILES | CC50
CN(C)C(=O)Cn1nnc2ccccc21 | > 100 µM
CN(C)C(=O)Cn1nc2ccccc2n1 | > 100 µM
C[C@@H](Oc1ccc(-n2nc3ccccc3n2)cc1)C(=O)O | > 100 µM
CC(CC(=O)O)n1nc2ccc3ccccc3c2n1 (stereo not given) | > 100 µM
NCCn1nnc2ccccc21 | > 100 µM
Nc1nc2c(ncn2COCCO)c(=O)[nH]1 [ACYCLOVIR] | > 100 µM
C[C@H](Oc1ccc(-n2nc3ccccc3n2)cc1)C(=O)O | > 100 µM

system: Bovine viral diarrhea virus 1; test: Antiviral activity against BVDV infected in MDBK cells assessed as inhibition of virus-induced cytopathogenicity after 3 to 4 days by MTT assay; assay type: functional, organism-based; conditions: Bovine viral diarrhea virus isolates and strains

SMILES | EC50
CN(C)C(=O)Cn1nnc2ccccc21 | > 100 µM
CN(C)C(=O)Cn1nc2ccccc2n1 | > 100 µM
C[C@@H](Oc1ccc(-n2nc3ccccc3n2)cc1)C(=O)O | > 100 µM
CC(CC(=O)O)n1nc2ccc3ccccc3c2n1 (stereo not given) | > 100 µM
NCCn1nnc2ccccc21 | > 100 µM
Nc1nc2c(ncn2COCCO)c(=O)[nH]1 [ACYCLOVIR] | > 100 µM
C[C@H](Oc1ccc(-n2nc3ccccc3n2)cc1)C(=O)O | > 100 µM

system: Yellow fever virus; test: Antiviral activity against YFV infected in BHK-21 cells assessed as inhibition of virus-induced cytopathogenicity after 3 to 4 days by MTT assay; assay type: functional, organism-based; conditions: not given

SMILES | EC50
CN(C)C(=O)Cn1nnc2ccccc21 | > 100 µM
CN(C)C(=O)Cn1nc2ccccc2n1 | > 100 µM
C[C@@H](Oc1ccc(-n2nc3ccccc3n2)cc1)C(=O)O | > 100 µM
CC(CC(=O)O)n1nc2ccc3ccccc3c2n1 (stereo not given) | > 100 µM
NCCn1nnc2ccccc21 | > 100 µM
Nc1nc2c(ncn2COCCO)c(=O)[nH]1 [ACYCLOVIR] | > 100 µM
C[C@H](Oc1ccc(-n2nc3ccccc3n2)cc1)C(=O)O | > 100 µM

system: Coxsackievirus B5; test: Antiviral activity against human CVB5 infected in african green monkey Vero76 cells assessed as inhibition of virus-induced cytopathogenicity after 3 days by plaque reduction assay; assay type: functional, organism-based; conditions: Enterovirus B, Vero 76, 72 h

SMILES | EC50
CN(C)C(=O)Cn1nnc2ccccc21 | > 100 µM
CN(C)C(=O)Cn1nc2ccccc2n1 | > 100 µM
C[C@@H](Oc1ccc(-n2nc3ccccc3n2)cc1)C(=O)O | > 100 µM
CC(CC(=O)O)n1nc2ccc3ccccc3c2n1 (stereo not given) | > 100 µM
NCCn1nnc2ccccc21 | > 100 µM
Nc1nc2c(ncn2COCCO)c(=O)[nH]1 [ACYCLOVIR] | > 100 µM
C[C@H](Oc1ccc(-n2nc3ccccc3n2)cc1)C(=O)O | > 100 µM

system: Human orthopneumovirus; test: Antiviral activity against human RSV infected in african green monkey Vero76 cells assessed as inhibition of virus-induced cytopathogenicity after 5 days by plaque reduction assay; assay type: functional, organism-based; conditions: human respiratory syncytial virus, Vero 76, 120 h

SMILES | EC50
CN(C)C(=O)Cn1nnc2ccccc21 | > 100 µM
CN(C)C(=O)Cn1nc2ccccc2n1 | > 100 µM
C[C@@H](Oc1ccc(-n2nc3ccccc3n2)cc1)C(=O)O | > 100 µM
CC(CC(=O)O)n1nc2ccc3ccccc3c2n1 (stereo not given) | > 100 µM
NCCn1nnc2ccccc21 | > 100 µM
Nc1nc2c(ncn2COCCO)c(=O)[nH]1 [ACYCLOVIR] | > 100 µM
C[C@H](Oc1ccc(-n2nc3ccccc3n2)cc1)C(=O)O | > 100 µM

system: Poliovirus 1; test: Antiviral activity against Human poliovirus 1 Sabin infected in african green monkey Vero76 cells assessed as inhibition of virus-induced cytopathogenicity by plaque reduction assay; assay type: functional, organism-based; conditions: Enterovirus C, Vero 76

SMILES | EC50
C[C@@H](Oc1ccc(-n2nc3ccccc3n2)cc1)C(=O)O | > 100 µM
Nc1nc2c(ncn2COCCO)c(=O)[nH]1 [ACYCLOVIR] | > 100 µM
C[C@H](Oc1ccc(-n2nc3ccccc3n2)cc1)C(=O)O | > 100 µM

system: Human immunodeficiency virus 1; test: Antiviral activity against HIV-1 infected in MT4 cells assessed as inhibition of virus-induced cytopathogenicity after 4 days by MTT assay; assay type: functional, organism-based; conditions: Human immunodeficiency virus 1, MT4, 96 h

SMILES | EC50
CN(C)C(=O)Cn1nnc2ccccc21 | > 100 µM
CN(C)C(=O)Cn1nc2ccccc2n1 | > 100 µM
C[C@@H](Oc1ccc(-n2nc3ccccc3n2)cc1)C(=O)O | > 100 µM
CC(CC(=O)O)n1nc2ccc3ccccc3c2n1 (stereo not given) | > 100 µM
NCCn1nnc2ccccc21 | > 100 µM
C[C@H](Oc1ccc(-n2nc3ccccc3n2)cc1)C(=O)O | > 100 µM

system: Human alphaherpesvirus 1; test: Antiviral activity against HSV1; assay type: functional, organism-based; conditions: not given

SMILES | EC50
Nc1nc2c(ncn2COCCO)c(=O)[nH]1 [ACYCLOVIR] | 1.2 µM

system: Vesicular stomatitis virus; test: Antiviral activity against VSV; assay type: functional, organism-based; conditions: not given

SMILES | EC50
CN(C)C(=O)Cn1nnc2ccccc21 | > 100 µM
CN(C)C(=O)Cn1nc2ccccc2n1 | > 100 µM
C[C@@H](Oc1ccc(-n2nc3ccccc3n2)cc1)C(=O)O | > 100 µM
CC(CC(=O)O)n1nc2ccc3ccccc3c2n1 (stereo not given) | > 100 µM
NCCn1nnc2ccccc21 | > 100 µM
Nc1nc2c(ncn2COCCO)c(=O)[nH]1 [ACYCLOVIR] | > 100 µM
C[C@H](Oc1ccc(-n2nc3ccccc3n2)cc1)C(=O)O | > 100 µM

system: Vaccinia virus; test: Antiviral activity against Vaccinia virus; assay type: functional, organism-based; conditions: Orthopoxvirus vaccinia

SMILES | EC50
CN(C)C(=O)Cn1nnc2ccccc21 | > 100 µM
CN(C)C(=O)Cn1nc2ccccc2n1 | > 100 µM
C[C@@H](Oc1ccc(-n2nc3ccccc3n2)cc1)C(=O)O | > 100 µM
CC(CC(=O)O)n1nc2ccc3ccccc3c2n1 (stereo not given) | > 100 µM
NCCn1nnc2ccccc21 | > 100 µM
Nc1nc2c(ncn2COCCO)c(=O)[nH]1 [ACYCLOVIR] | > 100 µM
C[C@H](Oc1ccc(-n2nc3ccccc3n2)cc1)C(=O)O | > 100 µM
